Series [1] can be described thus: (§1) Kinetic data for inhibition of Beta-1,4-GalT by free N-acetyl-glucosamine. More on the design: species or system Homo sapiens.
Series [2] in a line: (§2) Kinetic data for inhibition of Beta-1,4-GalT by polymer-supported Nacetylglucosamine. On the set-up: species or system Homo sapiens.
For a further series, the species on record is Homo sapiens. Described as §1.
A short description of series [3]: as §1. Conditions: human.
Series [4] in a line: as §2. The note with it: human.

As a reminder, the Ki is a measure of affinity in units of concentration, obtained from inhibition or displacement. High values mean weaker binding, low ones tighter binding. In general, Km refers to the substrate concentration at which the rate is half of its maximum. In the case of `CC(=O)N[C@@H]1[C@@H](O)[C@H](O)[C@@H](CO)O[C@H]1O` [N-ACETYLGLUCOSAMINE], the Ki worked out at 14.3 mM in series [1] and 0.54 mM in series [2]. In addition, the Km in the series filed under Homo sapiens came out at 34.6 mM; in series [4] it was 10.5 mM. For the same compound, the Vmax in series [3] amounted to 2.62 U mg-1; in series [4], 4.73 U mg-1.

The values above are taken from ChEMBL document CHEMBL1133961, “Chemo-enzymatic synthesis of the Galili epitope Gal(alpha)(1-->3)Galbeta(1-->4)GlcNAc on a homogeneously soluble PEG polymer by a multi-enzyme system” (Bioorg Med Chem Lett, 2001).
